Experiments:
[1] = molar heat capacity at constant pressure; conditions: 101.33 kPa, Liquid, Small sample (50 mg) DSC
[2] = Liquid; for thermal diffusivity: 101.33 kPa, Laser flash apparatus

CCCOC(=O)CCC(C)=O [propyl levulinate]
Conditions	Critical pressure [kPa]	Critical temperature [K]	molar heat capacity at constant pressure [J/K/mol]	thermal diffusivity [m2/s]
[1], 303.04 K	–	–	319.87	–
[1], 303.54 K	–	–	320.34	–
[1], 304.04 K	–	–	320.5	–
[1], 304.54 K	–	–	320.03	–
[1], 305.04 K	–	–	320.5	–
[1], 305.54 K	–	–	320.34	–
[1], 306.04 K	–	–	320.5	–
[1], 306.54 K	–	–	320.19	–
[1], 307.04 K	–	–	320.19	–
[1], 307.54 K	–	–	320.82	–
[1], 308.04 K	–	–	320.82	–
[1], 308.54 K	–	–	321.45	–
[1], 309.04 K	–	–	320.82	–
[1], 309.54 K	–	–	321.14	–
[1], 310.04 K	–	–	321.61	–
[1], 310.54 K	–	–	321.14	–
[1], 311.04 K	–	–	321.29	–
[1], 311.54 K	–	–	321.29	–
[1], 312.04 K	–	–	322.08	–
[1], 312.54 K	–	–	321.45	–
[1], 313.04 K	–	–	322.24	–
[1], 313.54 K	–	–	322.08	–
[1], 314.04 K	–	–	322.24	–
[1], 314.54 K	–	–	322.24	–
[1], 315.04 K	–	–	322.56	–
[1], 315.54 K	–	–	322.88	–
[1], 316.04 K	–	–	322.72	–
[1], 316.54 K	–	–	322.24	–
[1], 317.04 K	–	–	322.56	–
[1], 317.54 K	–	–	323.03	–
[1], 318.04 K	–	–	323.98	–
[1], 318.54 K	–	–	323.19	–
[1], 319.04 K	–	–	323.67	–
[1], 319.54 K	–	–	324.14	–
[1], 320.04 K	–	–	323.35	–
[1], 320.54 K	–	–	323.83	–
[1], 321.04 K	–	–	323.67	–
[1], 321.54 K	–	–	323.83	–
[1], 322.04 K	–	–	323.83	–
[1], 322.54 K	–	–	324.62	–
[1], 323.04 K	–	–	324.46	–
[1], 323.54 K	–	–	324.46	–
[1], 324.04 K	–	–	324.3	–
[1], 324.54 K	–	–	324.93	–
[1], 325.04 K	–	–	324.93	–
[1], 325.54 K	–	–	325.25	–
[1], 326.04 K	–	–	325.57	–
[1], 326.54 K	–	–	325.72	–
[1], 327.04 K	–	–	325.88	–
[1], 327.54 K	–	–	325.72	–
[1], 328.04 K	–	–	326.04	–
[1], 328.54 K	–	–	326.67	–
[1], 329.04 K	–	–	325.72	–
[1], 329.54 K	–	–	326.51	–
[1], 330.04 K	–	–	326.2	–
[1], 330.54 K	–	–	326.83	–
[1], 331.04 K	–	–	326.83	–
[1], 331.54 K	–	–	327.15	–
[1], 332.04 K	–	–	326.83	–
[1], 332.54 K	–	–	327.15	–
[1], 333.04 K	–	–	326.83	–
[1], 333.54 K	–	–	327.31	–
[1], 334.04 K	–	–	327.62	–
[1], 334.54 K	–	–	328.1	–
[1], 335.04 K	–	–	328.41	–
[1], 335.54 K	–	–	328.73	–
[1], 336.04 K	–	–	328.41	–
[1], 336.54 K	–	–	328.25	–
[1], 337.04 K	–	–	328.57	–
[1], 337.54 K	–	–	328.57	–
[1], 338.04 K	–	–	329.2	–
[1], 338.54 K	–	–	328.89	–
[1], 339.04 K	–	–	329.05	–
[1], 339.54 K	–	–	329.2	–
[1], 340.04 K	–	–	328.89	–
[1], 340.54 K	–	–	329.36	–
[1], 341.04 K	–	–	329.84	–
[1], 341.54 K	–	–	329.99	–
[1], 342.04 K	–	–	329.68	–
[1], 342.54 K	–	–	329.36	–
[1], 343.04 K	–	–	330.31	–
[1], 343.54 K	–	–	330.31	–
[1], 344.04 K	–	–	330.15	–
[1], 344.54 K	–	–	330.15	–
[1], 345.04 K	–	–	330.63	–
[1], 345.54 K	–	–	331.1	–
[1], 346.04 K	–	–	331.1	–
[1], 346.54 K	–	–	330.94	–
[1], 347.04 K	–	–	331.58	–
[1], 347.54 K	–	–	331.58	–
[1], 348.04 K	–	–	331.73	–
[1], 348.54 K	–	–	332.05	–
[1], 349.04 K	–	–	331.89	–
[1], 349.54 K	–	–	332.05	–
[1], 350.04 K	–	–	332.37	–
[1], 350.54 K	–	–	332.68	–
[1], 351.04 K	–	–	333.16	–
[1], 351.54 K	–	–	333	–
[1], 352.04 K	–	–	333	–
[1], 352.54 K	–	–	333.16	–
[1], 353.04 K	–	–	333.95	–
[1], 353.54 K	–	–	333.47	–
[1], 354.04 K	–	–	334.27	–
[1], 354.54 K	–	–	334.27	–
[1], 355.04 K	–	–	334.42	–
[1], 355.54 K	–	–	334.74	–
[1], 356.04 K	–	–	334.27	–
[1], 356.54 K	–	–	334.42	–
[1], 357.04 K	–	–	334.58	–
[1], 357.54 K	–	–	334.58	–
[1], 358.04 K	–	–	335.22	–
[1], 358.54 K	–	–	335.37	–
[1], 359.04 K	–	–	335.85	–
[1], 359.54 K	–	–	335.85	–
[1], 360.04 K	–	–	335.53	–
[1], 360.54 K	–	–	336.01	–
[1], 361.04 K	–	–	336.32	–
[1], 361.54 K	–	–	336.64	–
[1], 362.04 K	–	–	336.16	–
[1], 362.54 K	–	–	336.01	–
[1], 363.04 K	–	–	336.16	–
[1], 363.54 K	–	–	336.64	–
[1], 364.04 K	–	–	337.11	–
[1], 364.54 K	–	–	337.11	–
[1], 365.04 K	–	–	337.11	–
[1], 365.54 K	–	–	337.11	–
[1], 366.04 K	–	–	337.9	–
[1], 366.54 K	–	–	337.9	–
[1], 367.04 K	–	–	337.59	–
[1], 367.54 K	–	–	337.59	–
[1], 368.04 K	–	–	338.06	–
[1], 368.54 K	–	–	338.06	–
[1], 369.04 K	–	–	337.75	–
[1], 369.54 K	–	–	337.9	–
[1], 370.04 K	–	–	338.22	–
[1], 370.54 K	–	–	338.06	–
[1], 371.04 K	–	–	338.54	–
[1], 371.54 K	–	–	338.54	–
[1], 372.04 K	–	–	338.7	–
[1], 372.54 K	–	–	339.49	–
[1], 373.04 K	–	–	339.33	–
[1], 373.54 K	–	–	339.49	–
[1], 374.04 K	–	–	340.12	–
[1], 374.54 K	–	–	340.75	–
[2], 303.15 K	–	–	–	7.82e-08
[2], 313.15 K	–	–	–	7.73e-08
[2], 323.15 K	–	–	–	7.62e-08
[2], 333.15 K	–	–	–	7.53e-08
[2], 343.15 K	–	–	–	7.37e-08
[2], 353.15 K	–	–	–	7.26e-08
[2], 363.15 K	–	–	–	7.22e-08
[2], Resistive pulse heating	2670	674	–	–
